In patent publication EP4707277A1, “NOVEL HETEROCYCLIC AMINE DERIVATIVES AND PHARMACEUTICAL COMPOSITION COMPRISING SAME” (Daewoong Pharmaceutical Co., Ltd., priority 2023, dated 2024) one finds IC50 data, which are given here for 19 compounds.

Like-named read-outs stand apart in the source and are kept apart here. A value given as a limit tells only on which side of the number the result lay.

In general, IC50 refers to the midpoint of a concentration-inhibition curve.

The target of one experiment is T1, ITK (Homo sapiens, UniProt Q08881).
T1 construct: purchased Signalchem I13-11G-10
T1 sequence (Q08881 1-620): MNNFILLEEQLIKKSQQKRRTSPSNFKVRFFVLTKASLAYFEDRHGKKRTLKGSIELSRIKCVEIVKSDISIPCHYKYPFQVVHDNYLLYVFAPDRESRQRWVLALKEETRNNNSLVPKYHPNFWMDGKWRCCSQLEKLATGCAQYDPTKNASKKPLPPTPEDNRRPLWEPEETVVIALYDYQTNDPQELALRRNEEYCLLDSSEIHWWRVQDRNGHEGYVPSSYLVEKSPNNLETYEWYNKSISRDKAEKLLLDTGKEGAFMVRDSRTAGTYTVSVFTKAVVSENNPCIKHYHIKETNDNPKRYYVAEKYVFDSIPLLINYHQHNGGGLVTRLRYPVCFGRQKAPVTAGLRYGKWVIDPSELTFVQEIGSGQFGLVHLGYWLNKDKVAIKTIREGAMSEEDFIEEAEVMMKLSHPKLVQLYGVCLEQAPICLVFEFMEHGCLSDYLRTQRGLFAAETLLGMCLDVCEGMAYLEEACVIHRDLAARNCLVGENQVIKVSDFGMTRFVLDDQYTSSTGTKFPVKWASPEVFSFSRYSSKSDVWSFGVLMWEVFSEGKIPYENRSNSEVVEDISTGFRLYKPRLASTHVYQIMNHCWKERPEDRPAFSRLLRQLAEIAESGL
The experiment is described as follows: Inhibitory activity against ITK, ADP-Glo Kinase system (Promega). The format is biochemical. The procedure: (§1) Inhibitory activities against BTK and ITK were measured for the compounds prepared in the above Examples as follows.
(§2) The inhibitory activities against BTK and ITK were evaluated using 'ADP-Glo™ Kinase system' (Promega Corporation). In the case of this evaluation method, activation was measured by quantifying the amount of ADP produced during the kinase reaction, which was utilized to measure the inhibitory activities against BTK and ITK.
(§3) Specifically, the inhibitory activities against BTK and ITK were measured using BTK kinase (Signalchem, B10-10H), ITK kinase (Signalchem, I13-11G-10), and ADP-Glo kinase assay kit (Promega, V9102). Recombinant purified human BTK and ITK were diluted with 1 x kinase reaction buffer (40 mM Tris-Cl, pH 7.5, 20 mM MgCl2, 0.1 mg/mL BSA, 2 mM MnCl2 and 50 uM DTT) and added to a 96 well plate (ITK: final concentration of 4 ng per reaction/BTK: final concentration of 10 ng per reaction). The compounds prepared in the previous Examples were treated so as to be finally a 1% DMSO aqueous solution, and a substrate cocktail containing ATP (1mM or Km ATP (BTK: 10 uM /ITK: 25uM)) and 0.2 ug/ul of Poly (Glu4,Tyr1) peptide (BTK and ITK final concentration) in the total 25 uL reactants was added to a 96-well plate to initiate enzymatic reaction. After incubation (30°C) for 1 hour, equivalent volume (25 uL per reaction) of ADP Glo was added, and incubated (30°C) for 40 minutes at room temperature. Then, a kinase detection reagent (45 uL per reaction) was added, and incubated (30°C) for 30 minutes at room temperature. The kinase activity was measured by chemiluminescence according to the instructions of ADP Glo kinase assay kit, and the inhibitory activity of the compounds according to the present disclosure was calculated. For the analysis of the results of each compound, Microsoft Excel was used, and IC50 values were calculated by GraphPad Prism software.
For orientation: ADP-Glo turns the ADP formed in a reaction into a luminescent signal.

Another experiment has as its target T2, BTK (Homo sapiens, UniProt Q06187).
T2 construct: purchased Signalchem B10-10H
As to the kind of experiment: Inhibitory activity against BTK, ADP-Glo Kinase system (Promega). In kind it is biochemical. Here is the method:
as §1, §2, §3

The mark [1] stands for this setting: 1mM ATP, read-out: ITK IC50(nM) 1mM ATP.
The mark [2] stands for this setting: 1mM ATP, read-out: BTK IC50(nM) 1mM ATP.
Setting [3] is: Km ATP (ITK: 25uM), read-out: ITK IC50(nM) Km ATP.
The mark [4] stands for this setting: Km ATP (BTK: 10 uM), read-out: BTK IC50(nM) Km ATP.

T2 sequence (Q06187 whole entry): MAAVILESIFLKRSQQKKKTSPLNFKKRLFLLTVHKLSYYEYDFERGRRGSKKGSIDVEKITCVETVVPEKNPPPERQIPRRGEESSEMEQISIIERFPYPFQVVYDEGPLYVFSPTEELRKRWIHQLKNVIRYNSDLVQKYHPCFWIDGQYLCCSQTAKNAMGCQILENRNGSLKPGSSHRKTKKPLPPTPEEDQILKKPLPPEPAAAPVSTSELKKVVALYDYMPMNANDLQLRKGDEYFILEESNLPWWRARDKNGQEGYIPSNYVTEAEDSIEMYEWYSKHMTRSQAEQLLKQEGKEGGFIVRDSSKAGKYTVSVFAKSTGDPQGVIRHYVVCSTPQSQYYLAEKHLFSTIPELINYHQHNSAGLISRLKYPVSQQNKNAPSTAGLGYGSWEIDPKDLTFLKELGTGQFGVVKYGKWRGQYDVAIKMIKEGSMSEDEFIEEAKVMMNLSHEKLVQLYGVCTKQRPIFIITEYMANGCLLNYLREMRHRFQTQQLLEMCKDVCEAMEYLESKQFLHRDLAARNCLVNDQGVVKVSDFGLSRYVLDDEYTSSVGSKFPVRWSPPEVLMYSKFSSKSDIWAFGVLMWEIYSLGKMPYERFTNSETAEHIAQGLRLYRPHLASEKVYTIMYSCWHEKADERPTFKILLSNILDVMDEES

With `C=CC(=O)N1CCC[C@H](Oc2nc(Nc3ncc(C)s3)cc3c2ccn3C(C)C)C1` [Example 84, (S)-1-(3-((1-isopropyl-6-((5-methylthiazol-2-yl)amino)-1H-pyrrolo[3,2-c]pyridin-4-yl)oxy)piperidin-1-yl)prop-2-en-1-one], the 50% inhibitory concentration (IC50) was 20 to 100 nM on ITK (setting [1]) and no more than 20 nM on BTK (setting [2]).
The like results for `C=CC(=O)N1C2C=C(c3nc(Nc4ncc(C)s4)cc4c3ccn4C3CCCC3)CC1CC2` (centres unmarked) [Example 33, 1-(3-(1-cyclopentyl-6-((5-methylthiazol-2-yl)amino)-1H-pyrrolo[3,2-c]pyridin-4-yl)-8-azabicyclo[3.2.1]oct-2-en-8-yl)prop-2-en-1-one] were, in that order, no more than 20 nM and no more than 20 nM.
On to `C=CC(=O)N1C[C@H](F)[C@H](Oc2nc(Nc3ncc(C)s3)cc3c2ccn3C)C1` [Example 131, 1-((3S,4R)-3-fluoro-4-((1-methyl-6-((5-methylthiazol-2-yl)amino)-1H-pyrrolo[3,2-c]pyridin-4-yl)oxy)pyrrolidin-1-yl)prop-2-en-1-one], for which the IC50 on ITK (setting [1]) and on BTK (setting [2]) was no more than 20 nM in each case.
On to `C=CC(=O)Nc1cccc(-c2nc(Nc3ncc(C)s3)cc3c2ccn3C)c1OC` [Example 52, N-(2-methoxy-3-(1-methyl-6-((5-methylthiazol-2-yl)amino)-1H-pyrrolo[3,2-c]pyridin-4-yl)phenyl)acrylamide], for which the 50% inhibitory concentration (IC50) on ITK (setting [3]) and at BTK (setting [4]) was no more than 20 nM throughout.
For `C=CC(=O)N1CC[C@H](Oc2nc(Nc3cc(OC)ncn3)cc3c2ccn3C(C)C)C1` [Example 103, (S)-1-(3-((1-isopropyl-6-((6-methoxypyrimidin-4-yl)amino)-1H-pyrrolo[3,2-c]pyridin-4-yl)oxy)pyrrolidin-1-yl)prop-2-en-1-one], the results for the half-maximal inhibitory concentration (IC50) at ITK (setting [1]) and at BTK (setting [2]) were 20 to 100 nM and no more than 20 nM, respectively.
In the case of `C=CC(=O)N1C[C@H](F)[C@H](Oc2nc(Nc3ncc(C)s3)cc3c2ccn3CCCF)C1` [Example 191, 1-((3S,4R)-3-fluoro-4-((1-(3-fluoropropyl)-6-((5-methylthiazol-2-yl)amino)-1H-pyrrolo[3,2-c]pyridin-4-yl)oxy)pyrrolidin-1-yl)prop-2-en-1-one], the IC50 on ITK (setting [1]) and at BTK (setting [2]) was no more than 20 nM throughout.
Turning to `C=CC(=O)N1C[C@H](F)[C@H](Oc2nc(Nc3ncc(C)s3)cc3c2ccn3CCF)C1` [Example 189, 1-((3S,4R)-3-fluoro-4-((1-(2-fluoroethyl)-6-((5-methylthiazol-2-yl)amino)-1H-pyrrolo[3,2-c]pyridin-4-yl)oxy)pyrrolidin-1-yl)prop-2-en-1-one], the concentration for half-maximal inhibition (IC50) at ITK (setting [1]) and on BTK (setting [2]) was no more than 20 nM in each case.
With `C=CC(=O)N1CC(C)(Oc2nc(Nc3ncc(C)s3)cc3c2ccn3CCOC)C1` [Example 168, 1-(3-((1-(2-methoxyethyl)-6-((5-methylthiazol-2-yl)amino)-1H-pyrrolo[3,2-c]pyridin-4-yl)oxy)-3-methylazetidin-1-yl)prop-2-en-1-one], the IC50 on ITK (setting [1]) and on BTK (setting [2]) was greater than 500 nM throughout.
`C=CC(=O)N1CC[C@H](Oc2nc(Nc3nccnc3OC)cc3c2ccn3C(C)C)C1` [Example 184, (S)-1-(3-((1-isopropyl-6-((3-methoxypyrazin-2-yl)amino)-1H-pyrrolo[3,2-c]pyridin-4-yl)oxy)pyrrolidin-1-yl)prop-2-en-1-one]: the IC50 at ITK (setting [1]) and at BTK (setting [2]) was greater than 500 nM in each case.
For the compound `C=CC(=O)N1C[C@H](F)[C@H](Oc2nc(Nc3cc(F)ccc3C)cc3c2ccn3C)C1` [Example 139, 1-((3S,4R)-3-fluoro-4-((6-((5-fluoro-2-methylphenyl)amino)-1-methyl-1H-pyrrolo[3,2-c]pyridin-4-yl)oxy)pyrrolidin-1-yl)prop-2-en-1-one], the half-maximal inhibitory concentration (IC50) at ITK (setting [1]) and on BTK (setting [2]) was greater than 500 nM each time.
As for `C=CC(=O)N1C[C@@H](Oc2nc(Nc3ncc(C)s3)cc3c2ccn3CCC)C[C@@H]1C` [Example 187, 1-((2S,4S)-2-methyl-4-((6-((5-methylthiazol-2-yl)amino)-1-propyl-1H-pyrrolo[3,2-c]pyridin-4-yl)oxy)pyrrolidin-1-yl)prop-2-en-1-one], the IC50 on ITK (setting [1]) and on BTK (setting [2]) was no more than 20 nM throughout.
Consider `C=CC(=O)N1C[C@H](F)[C@H](Oc2nc(Nc3ncc(C(=O)NC)s3)cc3c2ccn3CC(C)C)C1` [Example 182, 2-((4-(((3R,4S)-1-acryloyl-4-fluoropyrrolidin-3-yl)oxy)-1-isobutyl-1H-pyrrolo[3,2-c]pyridin-6-yl)amino)-N-methylthiazole-5-carboxamide], for which the IC50 at ITK (setting [1]) and at BTK (setting [2]) was no more than 20 nM each time.
Consider `C=CC(=O)Nc1ccc(F)c(-c2nc(Nc3ncc(C)s3)cc3c2ccn3CC(F)(F)F)c1` [Example 78, N-(4-fluoro-3-(6-((5-methylthiazol-2-yl)amino)-1-(2,2,2-trifluoroethyl)-1H-pyrrolo[3,2-c]pyridin-4-yl)phenyl)acrylamide], for which the IC50 on ITK (setting [1]) was 20 to 100 nM; on BTK (setting [2]) it was no more than 20 nM.
On to `C=CC(=O)Nc1cc(C)cc(-c2nc(Nc3ncc(C)s3)cc3c2ccn3C)c1` [Example 53, N-(3-methyl-5-(1-methyl-6-((5-methylthiazol-2-yl)amino)-1H-pyrrolo[3,2-c]pyridin-4-yl)phenyl)acrylamide], for which the results for the IC50 at ITK (setting [3]) and on BTK (setting [4]) were 100 to 500 nM and no more than 20 nM, respectively.
For the compound `C/C=C/C(=O)N1CC[C@H](Oc2nc(Nc3ncc(C)s3)cc3c2ccn3CC(C)C)C1` [Example 226, (S,E)-1-(3-((1-isobutyl-6-((5-methylthiazol-2-yl)amino)-1H-pyrrolo[3,2-c]pyridin-4-yl)oxy)pyrrolidin-1-yl)but-2-en-1-one], the IC50 on ITK (setting [1]) and at BTK (setting [2]) was greater than 500 nM each time.
As for `C=CC(=O)N1CC=C(c2nc(Nc3cc(C(F)(F)F)ncn3)cc3c2ccn3C(C)C)CC1` [Example 45, 1-(4-(1-isopropyl-6-((6-(trifluoromethyl)pyrimidin-4-yl)amino)-1H-pyrrolo[3,2-c]pyridin-4-yl)-3,6-dihydropyridin-1(2H)-yl)prop-2-en-1-one], the half-maximal inhibitory concentration (IC50) lay within 100 to 500 nM on ITK (setting [1]) and 20 to 100 nM at BTK (setting [2]).
`C=CC(=O)Nc1cc(-c2nc(Nc3ncc(C)s3)cc3c2ccn3CC2CC2)ccc1C` [Example 65, N-(5-(1-(cyclopropylmethyl)-6-((5-methylthiazol-2-yl)amino)-1H-pyrrolo[3,2-c]pyridin-4-yl)-2-methylphenyl)acrylamide]: the 50% inhibitory concentration (IC50) on ITK (setting [3]) is 20 to 100 nM; on BTK (setting [4]), no more than 20 nM.
Take `C=CC(=O)N1CC[C@H](Oc2nc(Nc3ncc(C)s3)cc3c2ccn3CC2(C(F)(F)F)CC2)C1` (stereo in doubt) [Example 102, (S)-1-(3-((6-((5-methylthiazol-2-yl)amino)-1-((1-(trifluoromethyl)cyclopropyl)methyl)-1H-pyrrolo[3,2-c]pyridin-4-yl)oxy)pyrrolidin-1-yl)prop-2-en-1-one]: the IC50 at ITK (setting [1]) and on BTK (setting [2]) was no more than 20 nM throughout.
Turning to `C=CC(=O)N1C[C@H](F)[C@H](Oc2nc(Nc3ncc(C)s3)cc3c2ccn3[C@@H](C)CC)C1` [Example 112, 1-((3R,4S)-3-((1-((S)-sec-butyl)-6-((5-methylthiazol-2-yl)amino)-1H-pyrrolo[3,2-c]pyridin-4-yl)oxy)-4-fluoropyrrolidin-1-yl)prop-2-en-1-one], the IC50 at ITK (setting [1]) and on BTK (setting [2]) was no more than 20 nM in each case.
